According to US10350216B2, “Methods of treating, preventing and diagnosing leukemia and other blood diseases and disorders” (The Trustees of Columbia University in the City of New York, priority 2013, dated 2019):

How the values were obtained:
[1] = tested on: wild type mice; assay: DBZ treatment of wild type mice: peripheral blood counts and bone marrow cellularity; assay type: in vivo, mouse; conditions: DBZ 2 μmol/kg body weight daily for 10 days
Description: (§1) […] DBZ is cell-permeable, selective, nontransition sate and noncompetitive inhibitor of the γ-secretase complex. DBZ was synthesized to greater than 99.9% purity as assessed by LC/MS (Syncom) and suspended in a 0.5% Methocel E4M (wt/vol, Colorcon) and 0.1% (vol/vol) Tween-80 (Sigma) solution (van Es et al., 2005). Immediately before intraperitoneal injection, DBZ was sonicated for 2 minutes to achieve a homogenous suspension.
For hematological measurements, blood was collected by cardiac puncture. Peripheral blood cell counts were performed on a FORCYTE Hematology Analyzer (Oxford Science Inc.). For morphological assessment, peripheral blood smears were stained with Wright-Giemsa stain (Sigma-Aldrich) for 10 minutes followed by rinsing in dH2O for 3 minutes. Images were taken using a 60× objective on a Leica microscope outfitted with camera. […]
Hematological measurements, peripheral blood morphology, flow cytometry, PCR, and histological analysis were performed as described in Example 1.

[2] = tested on: βcat(ex3)osb mice; assay: Six-week treatment of βcat(ex3)osb mice with anti-Jagged1 antibody or DBZ (Example 17); assay type: in vivo
Description: The following endpoints are analyzed: survival, complete hematopoietic profile in the marrow, leukemia presence in peripheral blood, bone marrow, spleen and liver, potential end organ toxicity, and gene expression profiling of Notch targets Hes1, Hes5, Hey1, and Hey2, and the Hes1 targets, Cebpα and Pu.1.

[3] = tested on: βcat(ex3)osb mice; assay: DBZ (γ-secretase inhibitor) treatment of βcat(ex3)osb mice: blood counts, flow cytometry, histology, survival; assay type: in vivo
Description: as §1
For hematological measurements, blood was collected by cardiac puncture. Peripheral blood cell counts were performed on a FORCYTE Hematology Analyzer (Oxford Science Inc.). For morphological assessment, peripheral blood smears were stained with Wright-Giemsa stain (Sigma-Aldrich) for 10 minutes followed by rinsing in dH2O for 3 minutes. Images were taken using a 60× objective on a Leica microscope outfitted with camera.
Freshly isolated bone marrow cells and spleen cells were resuspended in flow-staining buffer (PBS plus 2% FBS) and the primary conjugated antibodies were added. After 30 minutes incubation at 4° C., the cells were then washed twice before flow cytometry analysis. The following monoclonal antibodies conjugated with fluorescein isothiocyanate (FITC), Allophycocyanin (APC) phycoerythrin (PE), PE-Cy7, APC-CY7, Pacific Blue, and Alexa 700 were used: CD117 (c-kit; 2B8), Sca-1 (D7), Mac-1α (M1/70), Gr-1(RB6-8C5), TER-119, (Ly-76) B220 (CD45R), CD19 (ID3), IgM (R6-60.2), CD3 (17A2), CD4 (RM4-5), CD8a (53-6.7), CD34 (RAM34), CD45 (30-F11), CD31 (MEC 13.3), CD16/CD32 (FcγRII/III; 2.4G2), CD135 (A2F10.1), CD150 (9D1), CD71 (C2), CD45.2 (104), CD45.1 (A20), F4/80, non-phospho (Active) β-Catenin (S33/S37/T41) antibody, IL-7Rα (SB199), Jagged-1 (C-20) and (Cell Signaling; D13A1). Seven-color flow cytometry acquisition was performed using a LSR II flow cytometer (Becton Dickinson) and analysis using FLO-JO software (Treestar, Inc). Cells were gated for size, shape and granularity using forward and side scatter parameters. The positive populations were identified as cells that expressed specific levels of fluorescence activity above the nonspecific auto fluorescence of the isotype control. Nonspecific binding was reduced by preincubation with unconjugated (2.4G2). Osteoblasts from MDS/AML patients or healthy subjects were identified as CD34−/Lin−OCN+ cells, (OCN: osteocalcin an osteoblast-specific protein used for isolation of live osteoblastic cells). For Flow sorting bone marrow, spleen and thymus cells were resuspended in flow staining buffer at 1×10^6/ml and labeled with the appropriate conjugated antibodies. After 30 minutes incubation, cells were washed twice using flow buffer. Flow sorting was performed using FACSAria (Becton Dickinson). Sorted populations were subsequently cultured or stored in RLT buffer at −80° C. for later extraction of RNA. Fluorescence intensity plots were presented in log scale. All flow cytometry data were representative of five independent experiments.
Bone marrow biopsies were fixed overnight in 10% neutral formalin solution, decalcified embedded in paraffin and sectioned at 5 μm per standard laboratory protocol. Sections were stained for β-catenin using a monoclonal antibody (1:1000, BD Transduction Lab) or for Runx2 using a polyclonal antibody (1:100 dilution, Santa Cruz) on an automated Ventana Discovery XT (Tuscon, Ariz.) platform according to manufacturer's instructions. Immune complexes formed were developed using a DAB Map Kit (Ventana, Tuscon, Ariz.). Murine long bones, spleen and liver were collected from one month old mice, fixed overnight in 10% neutral formalin solution, embedded in paraffin, sectioned at 5 μm, and stained with haematoxylin and eosin (H&E). For immunohistochemistry, specimens were incubated with CD-117 (C-kit; Abeam), CD13 (Santa Cruz) or Myeloperoxidase (MPO) antibodies after an antigen retrieval step and blocking of endogenous peroxidase with 3% H2O2. […]

[4] = tested on: primary, calvaria-derived osteoblasts; assay: Real-time PCR of Jagged-1 and Magp-2 in primary osteoblasts treated with Wnt3a; assay type: cell-based, mouse; conditions: Wnt3a 50 ng/ml for 24 hours, versus vehicle
Description: (§2) In FIGS. 57B and C, the vehicle treated is represented by the left hand bar and the Wnt3a treated is represented by the right hand bar. n=4 replicates, *p<0.05 versus vehicle. Results are mean±SD.
(§3) Total RNA was isolated from LSK or hematopoietic cells using RNAeasy micro Plus kit (Quiagen). Total RNA from long bones was isolated using TRIzol reagent. Quantitative real-time PCR was performed using the SYBR Green Master Mix (Bio-Rad) as previously described (Rached et al., 2010a). β-Actin was used as endogenous control. Gene expression in LT-HSCs, ST-HSCs and MPPs was performed using the Power Syber Green Cells-to-CT kit (Ambion Life Technologies)
For flow cytometry analysis, osteoblasts were identified from the digested bone samples as a population of CD34^−Lin^−Ocn^+ cells, where OCN (osteocalcin) is an osteoblast-specific, non-nuclear protein commonly used for isolation of live osteoblastic cells (Eghbali-Fatourechi et al., 2005; Rubin et al., 2011; Manavalan et al., 2012). For experiments in mice, all gene expression studies were repeated using calvaria-derived cells a population rich in committed osteoblast progenitors and routinely used as osteoblast-representative. Primary murine osteoblasts were prepared from calvaria of 2 day-old pups as previously described (Ghosh-Choudhury et al., 1994; Rached et al., 2010b). […]

[5] = tested on: LSK cells cultured in the presence of primary osteoblasts; assay: Real-time PCR of Hes1, Pu.1 and CEBPα in LSK+ population co-cultured with primary osteoblasts and treated with Wnt3a; assay type: cell-based, mouse; conditions: Wnt3a 50 ng/ml for 24 hours, co-culture with primary osteoblasts
Description: as §2, §3

[6] = βcat(ex3)osb mice, six weeks treatment
[7] = βcat(ex3)osb mice, 10 days DBZ, bone marrow and spleen
[8] = βcat(ex3)osb mice, DBZ 2 μmol/kg body weight daily for 10 days

C[C@H](NC(=O)Cc1cc(F)cc(F)c1)C(=O)NC1C(=O)N(C)c2ccccc2-c2ccccc21 (stereo partly drawn) [DBZ, (2S)-2-[2-(3,5-difluorophenyl)-acetylamino]-N-(5-methyl-6-oxo-6,7-dihydro-5H-dibenzo[b,-d]azepin-7-yl)-propionamide]
BA (basophils) [1]: 0.5 ± 0.2%
BM cell per femur [1]: 71.5 ± 4.3 10^5
EO (eosinophils) [1]: 1.55 ± 0.2%
HB [1]: 12.8 ± 0 g/dL
HCT [1]: 45.90 ± 2.5%
LY (lymphocytes) [1]: 78.54 ± 3.2%
MO (monocytes) [1]: 5.01 ± 0.6%
NE [1]: 14.41 ± 3.2%
Platelet [1]: 1119.5 ± 68.5 10^3/μl
WBC [1]: 3.54 ± 0.5 ×10^3/μl
Toxic effect on the intestines ([2]; mouse, in vivo): no toxic effect
Anemia, peripheral monocytosis, neutrophilia and lymphocytopenia and defects in the myeloid lineage, erythroid cells, LSK and LT-HSCs populations in the bone marrow [2, 6]: reversal
Expression of Notch targets Hes1, Hes5, Hey1, and Hey2, and the Hes1 targets, Cebpα and Pu.1 [2, 6]: decrease
Invasion of myeloid cells [2, 6]: no invasion
LSK and lymphoid-biased progenitors in the bone marrow and LSK/FcgRII/III subset of myeloid progenitors in spleen and bone marrow [2, 6]: return to normal levels
Myeloperoxidase staining in bone marrow, spleen and liver [2, 6]: identical to that of control animals
Survival [2, 6]: increased survival
Toxic effects (intestinal architecture, goblet cell metaplasia, PAS staining) ([3]; mice treated 10 days with DBZ, intestine): without any toxic effects
Survival (Kaplan-Meier) ([3]; βcat(ex3)osb mice treated with DBZ versus vehicle): increased survival
Blasts and hypersegmented neutrophils in the blood; infiltration with immature and atypical myeloid cells and atypical micro-megakaryocytes in bone marrow and spleen ([3]; βcat(ex3)osb mice, 10 days DBZ): not observed
Bone marrow cellularity ([3]; βcat(ex3)osb mice, 10 days DBZ): not affected
LSK and lymphoid-biased progenitors in the bone marrow and LSK/FcgRII/III subset of myeloid progenitors in spleen and bone marrow ([3]; βcat(ex3)osb mice, 10 days DBZ): returned to normal levels
Liver histology ([3]; βcat(ex3)osb mice, 10 days DBZ): appeared normal
Myeloperoxidase staining in bone marrow, spleen and liver ([3]; βcat(ex3)osb mice, 10 days DBZ): identical to that of wild type animals
Compromised B-lymphopoiesis [3, 7]: partially rescued
Defects in the myeloid lineage, erythroid cells, LSK and LT-HSCs populations [3, 7]: reversed
Osteopetrotic phenotype ([3]; βcat(ex3)osb mice, 10 days DBZ, long bone sections): not affected
Anemia, peripheral monocytosis, neutrophilia and lymphocytopenia ([3]; βcat(ex3)osb mice, 10 days DBZ, peripheral blood): reversed
BA (basophils) [3, 8]: 0.67 ± 0.7%
BM cell per femur [3, 8]: 18.6 ± 3.5 10^5
EO (eosinophils) [3, 8]: 1.87 ± 1.6%
HB [3, 8]: 11.2 ± 0.9 g/dL
HCT [3, 8]: 36.75 ± 3.2%
LY (lymphocytes) [3, 8]: 49.76 ± 4.3%
MO (monocytes) [3, 8]: 7.46 ± 1.2%
NE [3, 8]: 42.21 ± 4.8%
Platelet [3, 8]: 650 ± 113.1 10^3/μl
RBC [3, 8]: 8.06 ± 0.5 ×10^6/μl
WBC [3, 8]: 3.1 ± 0.5 ×10^3/μl

Wnt3a
Expression of Jagged-1 and Magp-2 [4]: upregulated
Notch signaling in LSK cells (Hes1, Pu.1 and CEBPα expression) [5]: stimulated
